The text below walks through data of patent publication US9938269B2, “Inhibitor compounds of phosphodiesterase type 10A” (ABBVIE INC., priority 2011, dated 2018).

Counter-ions that a name gives are not always drawn.

One series addresses T1, PDE10A (human) (Homo sapiens, UniProt Q9Y233).
T1 construct: purchased BPS Bioscience
Put plainly: Measurement of PDE activity (HTRF cAMP kit), human PDE10A. Type of series: biochemical. Conditions: PDE enzymatic reaction, substrate 20 nM for PDE10, 60 minutes at 29 C. A digest of the protocol: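 Recombinant human PDE10A (10–250 pM range across PDEs) with 20 nM cAMP substrate in 20 mM Tris-HCl pH 7.5, 10 mM MgCl2, 0.1% BSA, compound pre-mixed with enzyme. Ran 60 min at 29 °C. Remaining cAMP read by HTRF, converted to % of uninhibited activity, and IC50 fitted.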
Background: TR-FRET usually uses a lanthanide donor and a delayed reading to cut background.

Series [1] can be described thus: Determination of the microsomal half-life, rat liver microsomes. Conditions: rat, liver microsomes, pH 7.4. (In general: Liver microsomes are vesicles of endoplasmic reticulum, rich in cytochrome P450 enzymes.)
Procedure: (§1) The test substances were incubated in a concentration of 0.5 μM as follows:
(§2) 0.5 μM test substance are preincubated together with liver microsomes from different species (from rat, human or other species) (0.25 mg of microsomal protein/10 in 0.05 M potassium phosphate buffer of pH 7.4 in microtiter plates at 37° C. for 5 min. The reaction is started by adding NADPH (1 mg/mL). After 0, 5, 10, 15, 20 and 30 min., 50 μl aliquots are removed, and the reaction is immediately stopped and cooled with the same volume of acetonitrile. The samples are frozen until analyzed. The remaining concentration of undegraded test substance is determined by MSMS. The half-life (T½) is determined from the gradient of the signal of test substance/unit time plot, it being possible to calculate the half-life of the test substance, assuming first order kinetics, from the decrease in the concentration of the compound with time. The microsomal clearance (mCl) is calculated from mCl=ln 2/T½/(content of microsomal protein in mg/ml)×1000 [ml/min/mg]
Series [2] is described as follows: Determination of the microsomal half-life, human liver microsomes. Particulars: human, liver microsomes, pH 7.4.
Procedure: as §1, §2

T1 sequence (Q9Y233 whole entry): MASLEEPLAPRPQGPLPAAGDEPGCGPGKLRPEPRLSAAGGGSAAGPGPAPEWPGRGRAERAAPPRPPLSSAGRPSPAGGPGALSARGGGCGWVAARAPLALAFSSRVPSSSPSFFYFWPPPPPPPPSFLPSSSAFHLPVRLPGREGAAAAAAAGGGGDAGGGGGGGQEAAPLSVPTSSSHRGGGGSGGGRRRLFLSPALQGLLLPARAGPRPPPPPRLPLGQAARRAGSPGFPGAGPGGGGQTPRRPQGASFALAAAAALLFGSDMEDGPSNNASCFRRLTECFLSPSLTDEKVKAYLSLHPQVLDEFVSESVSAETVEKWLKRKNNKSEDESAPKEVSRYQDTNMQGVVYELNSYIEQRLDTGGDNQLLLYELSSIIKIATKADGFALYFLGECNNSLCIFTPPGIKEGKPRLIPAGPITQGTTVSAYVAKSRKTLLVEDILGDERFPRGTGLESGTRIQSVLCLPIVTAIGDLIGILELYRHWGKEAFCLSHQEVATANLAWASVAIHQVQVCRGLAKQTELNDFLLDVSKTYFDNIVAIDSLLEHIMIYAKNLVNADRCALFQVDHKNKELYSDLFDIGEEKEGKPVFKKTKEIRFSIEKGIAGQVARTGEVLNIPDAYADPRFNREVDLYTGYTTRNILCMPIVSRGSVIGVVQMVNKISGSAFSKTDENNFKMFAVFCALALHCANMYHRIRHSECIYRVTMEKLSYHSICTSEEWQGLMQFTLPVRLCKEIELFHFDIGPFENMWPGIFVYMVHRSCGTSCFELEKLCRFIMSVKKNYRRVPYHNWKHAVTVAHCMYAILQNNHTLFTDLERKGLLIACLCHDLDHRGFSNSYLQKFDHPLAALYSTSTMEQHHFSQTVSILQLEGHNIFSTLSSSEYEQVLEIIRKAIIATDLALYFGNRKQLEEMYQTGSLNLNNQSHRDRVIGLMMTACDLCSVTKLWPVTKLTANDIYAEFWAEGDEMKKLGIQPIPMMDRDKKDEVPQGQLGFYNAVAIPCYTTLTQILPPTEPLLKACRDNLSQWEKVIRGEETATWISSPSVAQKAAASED

Usually IC50 stands for the concentration that inhibits the measured activity by half. The term microsomal CLint denotes a measure of how fast metabolising enzymes remove a compound, apart from limits set by blood flow. A high value points to faster metabolism. At PDE10A (human), `O=C1Cc2ccc(-c3cccc4c3C(=O)N(CCc3ccc5ccccc5n3)C4)cc2N1` [Example 96, 6-[3-Oxo-2-(2-quinolin-2-yl-ethyl)-2,3-dihydro-1H-isoindol-4-yl]-1,3-dihydro-indol-2-one] yielded an IC50 of less than 100 nM. Moreover, the microsomal CLint at 0.5 μM in series [1] and in series [2] was 100 to 220 µL/min/mg in each case.

`O=C1c2cccc(OCc3cccnc3)c2C(=O)N1CCc1ccc2ccccc2n1` [Example 246, 4-(Pyridin-3-ylmethoxy)-2-(2-quinolin-2-yl-ethyl)-isoindole-1,3-dione] returned an IC50 against PDE10A (human) of less than 100 nM. Further, the microsomal CLint at 0.5 μM is more than 220 µL/min/mg in series [1] and 100 to 220 µL/min/mg in series [2].

For the compound `COc1ccc(-c2ccnn2C)c2c1CN(CCc1ccc3ccccc3n1)C2=O` [Example 210, 4-Methoxy-7-(2-methyl-2H-pyrazol-3-yl)-2-(2-quinolin-2-yl-ethyl)-2,3-dihydro-isoindol-1-one], at PDE10A (human), the IC50 is less than 100 nM. Besides, the results for the microsomal CLint at 0.5 μM in series [1] and in series [2] were more than 220 µL/min/mg and 100 to 220 µL/min/mg, respectively.

As for `Cc1ccc2c(c1)nc(CCN1Cc3nccc(-c4cncnc4)c3C1=O)n2C` [compound 535, 6-[2-(1,5-Dimethyl-1H-benzoimidazol-2-yl)-ethyl]-4-pyrimidin-5-yl-6,7-dihydro-pyrrolo[3,4-b]pyridin-5-one], on PDE10A (human), the concentration for half-maximal inhibition (IC50) was less than 100 nM. Besides, the microsomal CLint at 0.5 μM in series [1] and in series [2] was less than 100 µL/min/mg throughout.

In turn, `COc1ccc(-c2cc[nH]n2)c2c1C(=O)N(CCc1cn3ccccc3n1)C2` [compound 454, 2-(2-Imidazo[1,2-a]pyridin-2-yl-ethyl)-7-methoxy-4-(1H-pyrazol-3-yl)-2,3-dihydro-isoindol-1-one] displayed a half-inhibitory concentration (IC50) at PDE10A (human) of 100 to 200 nM. Besides, the microsomal CLint at 0.5 μM in series [1] and in series [2] was less than 100 µL/min/mg in each case.

`O=C1c2c(cccc2N2CCS(=O)(=O)CC2)CN1CCc1nc2ccccc2[nH]1` [Example 175, 2-[2-(1H-Benzoimidazol-2-yl)-ethyl]-7-(1,1-dioxo-thiomorpholin-4-yl)-2,3-dihydro-isoindol-1-one] returned an IC50 against PDE10A (human) of 100 to 200 nM. Further, the microsomal CLint at 0.5 μM in series [1] and in series [2] was less than 100 µL/min/mg each time.

For `O=C1c2c(N3CCOCC3)ccnc2CN1CCc1ccccn1` [compound 550, 4-Morpholino-6-[2-(2-pyridyl)ethyl]-7H-pyrrolo[3,4-b]pyridin-5-one], the IC50 against PDE10A (human) lay within 200 to 500 nM. Moreover, the microsomal CLint at 0.5 μM in series [1] and in series [2] was less than 100 µL/min/mg throughout.

The compound `O=C1c2c(-c3cc[nH]n3)ccnc2CN1CCc1cn2ccccc2n1` [compound 413, 6-(2-Imidazo[1,2-a]pyridin-2-yl-ethyl)-4-(1H-pyrazol-3-yl)-6,7-dihydro-pyrrolo[3,4-b]pyridin-5-one] had an IC50 on PDE10A (human) of less than 100 nM. Further, the microsomal CLint at 0.5 μM in series [1] and in series [2] was less than 100 µL/min/mg each time.

Compound `Cc1ccc2c(c1)nc(CCN1Cc3nccc(NC4COC4)c3C1=O)n2C` [compound 416, 6-[2-(1,5-Dimethyl-1H-benzoimidazol-2-yl)-ethyl]-4-(oxetan-3-ylamino)-6,7-dihydro-pyrrolo[3,4-b]pyridin-5-one] yielded an IC50 on PDE10A (human) of less than 100 nM. Moreover, the microsomal CLint at 0.5 μM in series [1] and in series [2] was less than 100 µL/min/mg in each case.

At PDE10A (human), `O=C1c2c(cccc2-c2cncnc2)CN1CCc1cn2ccccc2n1` [Example 238, 2-(2-Imidazo[1,2-a]pyridin-2-yl-ethyl)-7-pyrimidin-5-yl-2,3-dihydro-isoindol-1-one] had a concentration for half-maximal inhibition (IC50) of less than 100 nM. Further, the microsomal CLint at 0.5 μM in series [1] was less than 100 µL/min/mg; in series [2], 100 to 220 µL/min/mg.

Turning to `O=C1c2c(cccc2-c2ccc3nc[nH]c3c2)CN1CCc1cn2ccccc2n1` [Example 244, 7-(3H-Benzoimidazol-5-yl)-2-(2-imidazol[1,2-a]pyridin-2-yl-ethyl)-2,3-dihydro-isoindol-1-one], the IC50 against PDE10A (human) is 100 to 200 nM. Also, the microsomal CLint at 0.5 μM in series [1] and in series [2] was less than 100 µL/min/mg throughout.

For `O=C1c2c(-c3cccnc3)ccnc2CN1CCc1nc2ccccc2s1` [compound 430, 6-[2-(1,3-Benzothiazol-2-yl)ethyl]-4-(3-pyridyl)-7H-pyrrolo[3,4-b]pyridin-5-one trifluoroacetate], at PDE10A (human), the IC50 is less than 100 nM. Also, the microsomal CLint at 0.5 μM in series [1] and in series [2] was less than 100 µL/min/mg each time.

`O=C1c2c(-c3ccncc3)ccnc2CN1CCc1cnc2ccccc2n1` [compound 465, 4-(4-Pyridyl)-6-(2-quinoxalin-2-ylethyl)-7H-pyrrolo[3,4-b]pyridin-5-one] yielded an IC50 at PDE10A (human) of less than 100 nM. For the same compound, the microsomal CLint at 0.5 μM in series [1] and in series [2] was less than 100 µL/min/mg in each case.

At PDE10A (human), `Cc1nc(CCN2Cc3nccc(N4CCOCC4)c3C2=O)sc1C` [compound 519, 6-[2-(4,5-Dimethylthiazol-2-yl)ethyl]-4-morpholino-7H-pyrrolo[3,4-b]pyridin-5-one] registered an IC50 of less than 100 nM. The figures for the microsomal CLint at 0.5 μM in series [1] and in series [2] were more than 220 µL/min/mg and less than 100 µL/min/mg, respectively.

As to `Cc1ccc(CCN2Cc3nccc(-c4ccncc4)c3C2=O)nc1C` [compound 474, 6-[2-(5,6-Dimethyl-2-pyridyl)ethyl]-4-(4-pyridyl)-7H-pyrrolo[3,4-b]pyridin-5-one trifluoroacetate], on PDE10A (human), the IC50 fell in the range of 100 to 200 nM. In addition, the microsomal CLint at 0.5 μM in series [1] and in series [2] was 100 to 220 µL/min/mg each time.

`O=C1c2nccc(-c3cncnc3)c2CN1CCc1ccc2ccccc2n1` [compound 467, 4-Pyrimidin-5-yl-6-[2-(2-quinolyl)ethyl]-5H-pyrrolo[3,4-b]pyridin-7-one]: on PDE10A (human), the IC50 fell in the range of 100 to 200 nM. Moreover, the microsomal CLint at 0.5 μM in series [1] and in series [2] was less than 100 µL/min/mg each time.

`COc1ccc(-c2cc[nH]n2)c2c1C(=O)N(CCc1nc3ccccc3s1)C2` [compound 400, 2-[2-(1,3-Benzothiazol-2-yl)ethyl]-7-methoxy-4-(1H-pyrazol-3-yl)isoindolin-1-one]: the IC50 against PDE10A (human) is less than 100 nM. Moreover, the microsomal CLint at 0.5 μM in series [1] was more than 220 µL/min/mg; in series [2], less than 100 µL/min/mg.

At PDE10A (human), `[2H]c1nc2c(c(N3CCOCC3)c1[2H])C(=O)N(CC([2H])([2H])c1nc3c([2H])c([2H])c([2H])c([2H])c3c([2H])c1[2H])C2([2H])[2H]` [compound 513, 2,3,7,7-Tetradeuterio-6-[2,2-dideuterio-2-(3,4,5,6,7,8-hexadeuterio-2-quinolyl)ethyl]-4-morpholino-pyrrolo[3,4-b]pyridin-5-one] came in with an IC50 of less than 100 nM. The microsomal CLint at 0.5 μM in series [1] was more than 220 µL/min/mg; in series [2], 100 to 220 µL/min/mg.

Regarding `Nc1ncc2cc(-c3cccc4c3C(=O)N(CCc3ccc5ccccc5n3)C4)ccc2n1` [Example 12, 7-(2-Amino-quinazolin-6-yl)-2-(2-quinolin-2-yl-ethyl)-2,3-dihydro-isoindol-1-one], on PDE10A (human), the IC50 is less than 100 nM. Further, the microsomal CLint at 0.5 μM in series [1] and in series [2] was 100 to 220 µL/min/mg throughout.

For `O=C1c2c(-c3ccncc3)ccnc2CN1CCc1cn2ccccc2n1` [Example 369, 6-(2-Imidazo[1,2-a]pyridin-2-yl-ethyl)-4-pyridin-4-yl-6,7-dihydro-pyrrolo[3,4-b]pyridin-5-one], the half-maximal inhibitory concentration (IC50) on PDE10A (human) is less than 100 nM. Besides, the microsomal CLint at 0.5 μM in series [1] and in series [2] was less than 100 µL/min/mg in each case.
